Measurements: US20220117938A1, “COMBINATON THERAPY WITH A DON PRODRUG AND AN IMMUNE CHECKPOINT INHIBITOR” (DRACEN PHARMACEUTICALS, INC., priority 2019, published 2022)

Test system: MC-38 tumors
Assay: Anti-tumor efficacy of Compound 1 in the subcutaneous MC-38 model: schedule comparison (Example 3)
Format: in vivo, Mus musculus
Description: Female C57BL/6 mice were inoculated subcutaneously at right flank with MC-38 cells for tumor development. Six days after tumor inoculation, 64 mice with tumor size ranging from 50-100 mm^3 (average tumor size 71 mm^3) were selected and assigned into 8 groups using stratified randomization with 8 mice per group based upon their tumor volumes. The treatments were started from the day of randomization (defined as D0), Group 1 was treated with Vehicle (Tween 80:Ethanol:Saline—5:5:90 v/v/v), S.C. QD*20 days, Group 2 was treated with Compound 1 at 1 mpk S.C. QD*28 days, Group 3 was treated with Compound 1 at 0.5 mpk S.C. QD*28 days, Group 4 was treated with Compound 1 at 1.4 mpk S.C. 5-days ON 2-days OFF×4 cycles, Group 5 was treated with Compound 1 at 0.7 mpk S.C. 5-days ON 2-days OFF×4 cycles, Group 6 was treated with Compound 1 at 3 mpk qd×5, followed by 1 mpk qd×23, S.C. QD, Group 7 was treated with Compound 1 at 1.5 mpk qd×5, followed by 0.5 mpk qd×23, S.C. QD and Group 8 was treated with Compound 1 at 1.4 mpk 10-days ON 4-days OFF×2 cycles, S.C.
Species: Mus musculus; Strain: C57BL/6; Age: 6-8 weeks; Sex: female; Body weight (at treatment start): 16-20 g.
The MC-38 tumor cells were maintained in vitro as a monolayer culture in DMEM medium supplemented with 10% heat inactivated fetal bovine serum and 100 μg/mL penicillin streptomycin at 37° C. in an atmosphere of 5% CO2 in air. The tumor cells were routinely subcultured twice weekly by trypsin-EDTA treatment. The cells growing to a confluency around 70%-80% were harvested and counted for tumor inoculation. The cultured MC-38 were harvested, re-suspended in base medium at a density of 1×10^7 cells/mL with viability>90%. Each mouse was inoculated subcutaneously at the right flank with 1×10^6 cells in 0.1 ml base medium for tumor development.
The treatments were started on day 6 after tumor inoculation when the tumor size reached 50-100 mm^3 (average tumor size 71 mm^3). Each group consisted of 8 tumor-bearing mice. The testing article was administrated to the mice at a dosing volume of 10 mL/Kg according to the predetermined regimen as shown in Table 3-1.
Tumor sizes were measured three times a week in two dimensions using a caliper, and the volume expressed in mm^3 using the formula: V=0.5 a×b^2 where a and b are the long and short diameters of the tumor, respectively. The tumor sizes were then used for the calculations of both tumor growth inhibition (TGI) and T/C values.
TGI is calculated for each group using the formula: […]
TVTreatment_DayN is the average tumor volume of a treatment group on a given day, TVTreatment_Day0 is the average tumor volume of the treatment group on the first day of treatment, TVVehicle_DayN is the average tumor volume of the vehicle control group on a given day, and TVVehicle_Day0 is the average tumor volume of the vehicle group on the first day of treatment.
The T/C value (in percent) is an indication of antitumor effectiveness, T/C (%)=RTVTreatment/RTVControl×100% (RTVTreatment: the mean RTV of the treatment group; RTVControl: the mean RTV of the vehicle treated group). RTV (relative tumor volume)=TVDayN/TVDay0. TVDayN and TVDay0 is the tumor volume on day N and Day 0 respectively. T/C (%)≤42% is considered as significant antitumor activity and <10% is considered as highly significant antitumor activity by the National Cancer Institute criteria.
Relative change of body weight (RCBW) of each mouse was calculated according to the following formula: […]
Animal survival curve: When an individual animal reached to the termination endpoint (TV>2000 mm^3), the mouse was euthanized. The time from treatment initiation to the termination was deemed as its survival time. Survival curve was plotted by Kaplan-Meier method. Median survival time (MST) was calculated for each group. Increase of life span (ILS) was calculated according to the following formula: […]
ILS (%)>25% is considered as a biologically significant survival benefit. […]

## CC(=O)N[C@@H](Cc1c[nH]c2ccccc12)C(=O)N[C@@H](CCC(=O)C=[N+]=[N-])C(=O)OC(C)C [Compound 1, Isopropyl (S)-2-((S)-2-acetamido-3-(1H-indol-3-yl)propanamido)-6-diazo-5-oxohexanoate]
Day 20, Group 3: 0.5 mg/kg qdx28, sc
  Tumor volume (Mean ± SEM): 7 ± 1 mm^3
Day 20, Group 4: 1.4 mg/kg 5-days ON 2-days OFF x 4 cycles, sc
  Tumor volume (Mean ± SEM): 0 ± 0 mm^3
Day 20, Group 5: 0.7 mg/kg 5-days ON 2-days OFF x 4 cycles, sc
  Tumor volume (Mean ± SEM): 2 ± 1 mm^3
Day 20, Group 6: 3 mpk qdx5 followed by 1 mpk qdx23, sc
  Tumor volume (Mean ± SEM): 5 ± 2 mm^3
Day 20, Group 7: 1.5 mpk qdx5 followed by 0.5 mpk qdx23, sc
  Tumor volume (Mean ± SEM): 5 ± 1 mm^3
Day 20, Group 8: 1.4 mg/kg 10-days ON 4-days OFF x 2 cycles, sc
  Tumor volume (Mean ± SEM): 6 ± 2 mm^3
Day 22, Group 2: 1 mg/kg qdx28, sc
  Tumor volume (Mean ± SEM): 2 ± 1 mm^3
Day 22, Group 3: 0.5 mg/kg qdx28, sc
  Tumor volume (Mean ± SEM): 6 ± 2 mm^3
Day 22, Group 4: 1.4 mg/kg 5-days ON 2-days OFF x 4 cycles, sc
  Tumor volume (Mean ± SEM): 0 ± 0 mm^3
Day 22, Group 5: 0.7 mg/kg 5-days ON 2-days OFF x 4 cycles, sc
  Tumor volume (Mean ± SEM): 2 ± 1 mm^3
Day 22, Group 6: 3 mpk qdx5 followed by 1 mpk qdx23, sc
  Tumor volume (Mean ± SEM): 3 ± 1 mm^3
Day 22, Group 7: 1.5 mpk qdx5 followed by 0.5 mpk qdx23, sc
  Tumor volume (Mean ± SEM): 6 ± 1 mm^3
Day 22, Group 8: 1.4 mg/kg 10-days ON 4-days OFF x 2 cycles, sc
  Tumor volume (Mean ± SEM): 5 ± 2 mm^3
Day 25, Group 2: 1 mg/kg qdx28, sc
  Tumor volume (Mean ± SEM): 5 ± 1 mm^3
Day 25, Group 3: 0.5 mg/kg qdx28, sc
  Tumor volume (Mean ± SEM): 6 ± 1 mm^3
Day 25, Group 4: 1.4 mg/kg 5-days ON 2-days OFF x 4 cycles, sc
  Tumor volume (Mean ± SEM): 0 ± 0 mm^3
Day 25, Group 5: 0.7 mg/kg 5-days ON 2-days OFF x 4 cycles, sc
  Tumor volume (Mean ± SEM): 2 ± 1 mm^3
Day 25, Group 6: 3 mpk qdx5 followed by 1 mpk qdx23, sc
  Tumor volume (Mean ± SEM): 2 ± 1 mm^3
Day 25, Group 7: 1.5 mpk qdx5 followed by 0.5 mpk qdx23, sc
  Tumor volume (Mean ± SEM): 4 ± 1 mm^3
Day 25, Group 8: 1.4 mg/kg 10-days ON 4-days OFF x 2 cycles, sc
  Tumor volume (Mean ± SEM): 5 ± 2 mm^3
Day 27, Group 2: 1 mg/kg qdx28, sc
  Tumor volume (Mean ± SEM): 6 ± 2 mm^3
Day 27, Group 3: 0.5 mg/kg qdx28, sc
  Tumor volume (Mean ± SEM): 7 ± 1 mm^3
Day 27, Group 4: 1.4 mg/kg 5-days ON 2-days OFF x 4 cycles, sc
  Tumor volume (Mean ± SEM): 0 ± 0 mm^3
Day 27, Group 5: 0.7 mg/kg 5-days ON 2-days OFF x 4 cycles, sc
  Tumor volume (Mean ± SEM): 1 ± 1 mm^3
Day 27, Group 6: 3 mpk qdx5 followed by 1 mpk qdx23, sc
  Tumor volume (Mean ± SEM): 2 ± 1 mm^3
Day 27, Group 7: 1.5 mpk qdx5 followed by 0.5 mpk qdx23, sc
  Tumor volume (Mean ± SEM): 4 ± 1 mm^3
Day 27, Group 8: 1.4 mg/kg 10-days ON 4-days OFF x 2 cycles, sc
  Tumor volume (Mean ± SEM): 6 ± 2 mm^3
Day 29, Group 2: 1 mg/kg qdx28, sc
  Tumor volume (Mean ± SEM): 17 ± 11 mm^3
Day 29, Group 3: 0.5 mg/kg qdx28, sc
  Tumor volume (Mean ± SEM): 13 ± 3 mm^3
Day 29, Group 4: 1.4 mg/kg 5-days ON 2-days OFF x 4 cycles, sc
  Tumor volume (Mean ± SEM): 1 ± 1 mm^3
Day 29, Group 5: 0.7 mg/kg 5-days ON 2-days OFF x 4 cycles, sc
  Tumor volume (Mean ± SEM): 2 ± 1 mm^3
Day 29, Group 6: 3 mpk qdx5 followed by 1 mpk qdx23, sc
  Tumor volume (Mean ± SEM): 5 ± 3 mm^3
Day 29, Group 7: 1.5 mpk qdx5 followed by 0.5 mpk qdx23, sc
  Tumor volume (Mean ± SEM): 10 ± 3 mm^3
Day 29, Group 8: 1.4 mg/kg 10-days ON 4-days OFF x 2 cycles, sc
  Tumor volume (Mean ± SEM): 17 ± 5 mm^3
Day 32, Group 2: 1 mg/kg qdx28, sc
  Tumor volume (Mean ± SEM): 92 ± 47 mm^3
Day 32, Group 3: 0.5 mg/kg qdx28, sc
  Tumor volume (Mean ± SEM): 45 ± 9 mm^3
Day 32, Group 4: 1.4 mg/kg 5-days ON 2-days OFF x 4 cycles, sc
  Tumor volume (Mean ± SEM): 13 ± 7 mm^3
Day 32, Group 5: 0.7 mg/kg 5-days ON 2-days OFF x 4 cycles, sc
  Tumor volume (Mean ± SEM): 20 ± 12 mm^3
Day 32, Group 6: 3 mpk qdx5 followed by 1 mpk qdx23, sc
  Tumor volume (Mean ± SEM): 51 ± 35 mm^3
Day 32, Group 7: 1.5 mpk qdx5 followed by 0.5 mpk qdx23, sc
  Tumor volume (Mean ± SEM): 44 ± 12 mm^3
Day 32, Group 8: 1.4 mg/kg 10-days ON 4-days OFF x 2 cycles, sc
  Tumor volume (Mean ± SEM): 73 ± 19 mm^3
Day 34, Group 2: 1 mg/kg qdx28, sc
  Tumor volume (Mean ± SEM): 190 ± 81 mm^3
Day 34, Group 3: 0.5 mg/kg qdx28, sc
  Tumor volume (Mean ± SEM): 121 ± 20 mm^3
Day 34, Group 4: 1.4 mg/kg 5-days ON 2-days OFF x 4 cycles, sc
  Tumor volume (Mean ± SEM): 37 ± 21 mm^3
Day 34, Group 5: 0.7 mg/kg 5-days ON 2-days OFF x 4 cycles, sc
  Tumor volume (Mean ± SEM): 32 ± 16 mm^3
Day 34, Group 6: 3 mpk qdx5 followed by 1 mpk qdx23, sc
  Tumor volume (Mean ± SEM): 114 ± 79 mm^3
Day 34, Group 7: 1.5 mpk qdx5 followed by 0.5 mpk qdx23, sc
  Tumor volume (Mean ± SEM): 112 ± 24 mm^3
Day 34, Group 8: 1.4 mg/kg 10-days ON 4-days OFF x 2 cycles, sc
  Tumor volume (Mean ± SEM): 168 ± 43 mm^3
Day 36, Group 2: 1 mg/kg qdx28, sc
  Tumor volume (Mean ± SEM): 454 ± 212 mm^3
Day 36, Group 3: 0.5 mg/kg qdx28, sc
  Tumor volume (Mean ± SEM): 285 ± 42 mm^3
Day 36, Group 4: 1.4 mg/kg 5-days ON 2-days OFF x 4 cycles, sc
  Tumor volume (Mean ± SEM): 100 ± 47 mm^3
Day 36, Group 5: 0.7 mg/kg 5-days ON 2-days OFF x 4 cycles, sc
  Tumor volume (Mean ± SEM): 125 ± 63 mm^3
Day 36, Group 6: 3 mpk qdx5 followed by 1 mpk qdx23, sc
  Tumor volume (Mean ± SEM): 288 ± 174 mm^3
Day 36, Group 7: 1.5 mpk qdx5 followed by 0.5 mpk qdx23, sc
  Tumor volume (Mean ± SEM): 364 ± 69 mm^3
Day 36, Group 8: 1.4 mg/kg 10-days ON 4-days OFF x 2 cycles, sc
  Tumor volume (Mean ± SEM): 479 ± 121 mm^3
Day 39, Group 2: 1 mg/kg qdx28, sc
  Tumor volume (Mean ± SEM): 1109 ± 398 mm^3
Day 39, Group 3: 0.5 mg/kg qdx28, sc
  Tumor volume (Mean ± SEM): 592 ± 61 mm^3
Day 39, Group 4: 1.4 mg/kg 5-days ON 2-days OFF x 4 cycles, sc
  Tumor volume (Mean ± SEM): 238 ± 72 mm^3
Day 39, Group 5: 0.7 mg/kg 5-days ON 2-days OFF x 4 cycles, sc
  Tumor volume (Mean ± SEM): 242 ± 114 mm^3
Day 39, Group 6: 3 mpk qdx5 followed by 1 mpk qdx23, sc
  Tumor volume (Mean ± SEM): 723 ± 345 mm^3
Day 39, Group 7: 1.5 mpk qdx5 followed by 0.5 mpk qdx23, sc
  Tumor volume (Mean ± SEM): 904 ± 174 mm^3
Day 39, Group 8: 1.4 mg/kg 10-days ON 4-days OFF x 2 cycles, sc
  Tumor volume (Mean ± SEM): 945 ± 260 mm^3
Day 41, Group 3: 0.5 mg/kg qdx28, sc
  Tumor volume (Mean ± SEM): 1718 ± 136 mm^3
Day 41, Group 4: 1.4 mg/kg 5-days ON 2-days OFF x 4 cycles, sc
  Tumor volume (Mean ± SEM): 420 ± 129 mm^3
Group 5: 0.7 mpk S.C. 5-days ON 2-days OFF×4 cycles, 8 mice per group
  Mice completely tumor free on D67 ("cured"): Four
